Experimental data published in US20050234076A1, “Triazolopyrimidines” (priority 2002, published 2005).

Key:
Botrytis cinerea = test: Botrytis Test (bean)/protective; type: in vivo; settings: 48 h, bean plants, protective spray, evaluation 2 days after inoculation, 100% = no infection, read-out: Efficacy in %
Procedure: Botrytis Test (bean)/protective
Solvents: 24.5 parts by weight of acetone • 24.5 parts by of dimethylacetamide
Emulsifier: 1.0 part by weight of alkylaryl polyglycol ether
To produce a suitable preparation of active compound, 1 part by weight of active compound is mixed with the stated amounts of solvent and emulsifier, and the concentrate is diluted with water to the desired concentration.
To test for protective activity, young plants are sprayed with the preparation of active compound at the stated application rate. After the spray coating has dried on, 2 small pieces of agar colonized by Botrytis cinerea are placed onto each leaf. The inoculated plants are placed in a dark chamber at about 20° C. and 100% relative atmospheric humidity.
2 days after the inoculation the size of the infected areas on the leaves is evaluated. 0% means an efficacy which corresponds to that of the control, whereas an efficacy of 100% means that no infection is observed.

Venturia inaequalis = test: Venturia Test (apple)/protective; type: in vivo; settings: 240 h, apple plants, protective spray, evaluation 10 days after inoculation, 100% = no infection, read-out: Efficacy in %
Procedure: Venturia Test (apple)/protective Solvents: 24.5 parts by weight of acetone • 24.5 parts by weight of dimethylacetamide Emulsifier: 1.0 parts by weight alkylaryl polyglycol ether To produce a suitable preparation of active compound, 1 part by weight of active compound is mixed with the stated amounts of solvent and emulsifier, and the concentrate is diluted with water to the desired concentration. To test for protective activity, young plants are sprayed with the preparation of active compound at the stated application rate. […] The plants are then placed in a greenhouse at about 21° C. and a relative atmospheric humidity of about 90%.

chromatographic logP (physchem) | Structure (SMILES) | pest or weed control at 500 g/ha (Botrytis cinerea) | also measured
– | Fc1cc(F)c(-c2c(Cl)nc3ncnn3c2N2CC=CCO2)c(F)c1 | 100% | –
2.76 | CC1CCON1c1c(-c2c(F)cc(F)cc2F)c(Cl)nc2ncnn12 (stereo not drawn) [Example 1, 5-chloro-6-(2,4,6-trifluorophenyl)-7-(3-methyl-2-isoxazolidinyl)[1,2,4]triazolo[1,5-a]pyrimidine] | – | –
3.53 | Fc1cc(F)c(-c2c(Cl)nc3ncnn3c2N2Cc3ccccc3CO2)c(F)c1 [Example 5] | – | –
2.92 | Fc1cc(F)c(-c2c(Cl)nc3ncnn3c2N2CCCCO2)c(F)c1 [Example 6] | – | –
2.68 | Fc1cc(F)c(-c2c(Cl)nc3ncnn3c2N2CCCCN2)c(F)c1 [Example 10] | – | –
2.34 | Fc1cc(F)c(-c2c(Cl)nc3ncnn3c2N2CCC=N2)c(F)c1 [Example 11] | – | –
2.75 | Fc1cc(F)c(-c2c(Cl)nc3ncnn3c2N2OC3CCC2C3)c(F)c1 (stereo not drawn) [Example 18] | – | –
2.88 | Clc1cccc(Cl)c1-c1c(Cl)nc2ncnn2c1N1CCCCN1 [Example 21] | – | –
2.73 | Fc1cc(F)c(-c2c(Br)nc3ncnn3c2N2CCCCN2)c(F)c1 [Example 24] | – | –
2.65 | Fc1cc(F)c(-c2c(Cl)nc3ncnn3c2N2NC3CCC2C3)c(F)c1 (stereo not drawn) [Example 27] | – | –
2.59 | Fc1cccc(Cl)c1-c1c(Cl)nc2ncnn2c1N1NC2CCC1C2 (stereo not drawn) [Example 28] | – | –
2.68 | Fc1cccc(F)c1-c1c(Cl)nc2ncnn2c1N1CCCCO1 [Example 31] | – | –
2.69 | Clc1ccccc1-c1c(Cl)nc2ncnn2c1N1OC2CCC1C2 (stereo not drawn) [Example 33] | – | –
2.74 | Fc1cccc(Cl)c1-c1c(Cl)nc2ncnn2c1N1OC2CCC1C2 (stereo not drawn) [Example 34] | – | –
3.23 | CC1CCCON1c1c(-c2c(F)cc(F)cc2F)c(Cl)nc2ncnn12 (stereo not drawn) [Example 35] | – | –
3.17 | CC1CCCON1c1c(-c2ccccc2Cl)c(Cl)nc2ncnn12 (stereo not drawn) [Example 41] | – | –
2.74 | CC1CCON1c1c(-c2c(F)cccc2Cl)c(Cl)nc2ncnn12 (stereo not drawn) [Example 42] | – | –
2.67 | Fc1ccc(-c2c(Cl)nc3ncnn3c2N2OC3CCC2C3)c(F)c1 (stereo not drawn) [Example 43] | – | –
2.89 | Fc1ccc(-c2c(Cl)nc3ncnn3c2N2OC3CCC2C3)c(Cl)c1 (stereo not drawn) [Example 44] | – | –
3.1 | Fc1cc(F)c(-c2c(Cl)nc3ncnn3c2N2OC3CCC2C3)c(C(F)(F)F)c1 (stereo not drawn) [Example 46] | – | –
3.12 | CC1C=CCN(c2c(-c3c(F)cc(F)cc3F)c(Cl)nc3ncnn23)O1 (stereo not drawn) [Example 58] | – | –
2.47 | Fc1cccc(F)c1-c1c(Cl)nc2ncnn2c1N1CCCCN1 [Example 63] | – | –
3.06 | Fc1cc(F)c(-c2c(Cl)nc3ncnn3c2N2CCCCN2)c(C(F)(F)F)c1 [Example 67] | – | –
3.26 | Fc1cc(C(F)(F)F)cc(F)c1-c1c(Cl)nc2ncnn2c1N1CCCCN1 [Example 68] | – | –

chromatographic logP (physchem) | Structure (SMILES) | pest or weed control at 500 g/ha (Botrytis cinerea) | also measured
3.22 | Clc1ccc(-c2c(Cl)nc3ncnn3c2N2CCCCN2)c(Cl)c1 [Example 69] | – | –
1.22 | CCOC(=O)N1OCCC1C (stereo not drawn) [N-ethoxycarbonyl-3-methylisoxazolidine] | – | –
– | Fc1cc(F)c(-c2c(Cl)nc3ncnn3c2N2Cc3ccccc3CO2)c(F)c1 [drawing 45] | – | pest or weed control at 100 g/ha (Venturia inaequalis): 100%
– | Fc1cc(F)c(-c2c(Cl)nc3ncnn3c2N2CCCCO2)c(F)c1 [drawing 46] | – | pest or weed control at 100 g/ha (Venturia inaequalis): 100%
– | Fc1ccc(-c2c(Cl)nc3ncnn3c2N2CCCCO2)c(Cl)c1 [drawing 47] | – | pest or weed control at 100 g/ha (Venturia inaequalis): 100%
– | Fc1ccc(-c2c(Cl)nc3ncnn3c2N2CCCCO2)c(F)c1 [drawing 48] | – | pest or weed control at 100 g/ha (Venturia inaequalis): 96%
– | Fc1cccc(Cl)c1-c1c(Cl)nc2ncnn2c1N1CCCCN1 [drawing 49] | – | pest or weed control at 100 g/ha (Venturia inaequalis): 100%
– | CC1C=CCN(c2c(-c3c(F)cc(F)cc3F)c(Cl)nc3ncnn23)O1 (stereo not drawn) [drawing 50] | – | pest or weed control at 100 g/ha (Venturia inaequalis): 100%
– | Fc1cc(F)c(-c2c(Cl)nc3ncnn3c2N2OC3CCC2C3)c(F)c1 (stereo not drawn) [drawing 51] | – | pest or weed control at 100 g/ha (Venturia inaequalis): 100%
– | Fc1cc(F)c(-c2c(Cl)nc3ncnn3c2N2OC3CCC2C3)c(C(F)(F)F)c1 (stereo not drawn) [drawing 53] | – | pest or weed control at 100 g/ha (Venturia inaequalis): 100%
– | CC1CCCON1c1c(-c2c(F)cc(F)cc2F)c(Cl)nc2ncnn12 (stereo not drawn) [drawing 54] | – | pest or weed control at 100 g/ha (Venturia inaequalis): 100%
– | CC1CCON1c1c(-c2c(F)cc(F)cc2F)c(Cl)nc2ncnn12 (stereo not drawn) [drawing 55] | – | pest or weed control at 100 g/ha (Venturia inaequalis): 100%
– | Clc1ccccc1-c1c(Cl)nc2ncnn2c1N1OC2CCC1C2 (stereo not drawn) [drawing 56] | – | pest or weed control at 100 g/ha (Venturia inaequalis): 99%
– | Fc1cccc(F)c1-c1c(Cl)nc2ncnn2c1N1CCCCO1 [drawing 57] | – | pest or weed control at 100 g/ha (Venturia inaequalis): 100%
– | Fc1cccc(Cl)c1-c1c(Cl)nc2ncnn2c1N1OC2CCC1C2 (stereo not drawn) [drawing 58] | – | pest or weed control at 100 g/ha (Venturia inaequalis): 100%
– | CC1CCON1c1c(-c2c(F)cccc2Cl)c(Cl)nc2ncnn12 (stereo not drawn) [drawing 59] | – | pest or weed control at 100 g/ha (Venturia inaequalis): 100%
– | Fc1ccc(-c2c(Cl)nc3ncnn3c2N2OC3CCC2C3)c(F)c1 (stereo not drawn) [drawing 60] | – | pest or weed control at 100 g/ha (Venturia inaequalis): 100%
– | CC1CCCON1c1c(-c2ccccc2Cl)c(Cl)nc2ncnn12 (stereo not drawn) [drawing 61] | – | pest or weed control at 100 g/ha (Venturia inaequalis): 99%
– | Fc1ccc(-c2c(Cl)nc3ncnn3c2N2OC3CCC2C3)c(Cl)c1 (stereo not drawn) [drawing 62] | – | pest or weed control at 100 g/ha (Venturia inaequalis): 100%
– | Fc1cc(F)c(-c2c(Cl)nc3ncnn3c2N2CCC=N2)c(F)c1 [drawing 63] | – | pest or weed control at 100 g/ha (Venturia inaequalis): 96%
– | Clc1cccc(Cl)c1-c1c(Cl)nc2ncnn2c1N1CCCCN1 [drawing 64] | – | pest or weed control at 100 g/ha (Venturia inaequalis): 99%
– | Fc1cc(F)c(-c2c(Cl)nc3ncnn3c2N2Cc3ccccc3CO2)c(F)c1 [drawing 72] | 100% | –
– | Fc1cc(F)c(-c2c(Cl)nc3ncnn3c2N2CCCCO2)c(F)c1 [drawing 73] | 100% | –
– | Fc1ccc(-c2c(Cl)nc3ncnn3c2N2CCCCO2)c(Cl)c1 [drawing 74] | 100% | –

chromatographic logP (physchem) | Structure (SMILES) | pest or weed control at 500 g/ha (Botrytis cinerea) | also measured
– | Fc1ccc(-c2c(Cl)nc3ncnn3c2N2CCCCO2)c(F)c1 [drawing 75] | 100% | –
– | Fc1cccc(Cl)c1-c1c(Cl)nc2ncnn2c1N1CCCCN1 [drawing 76] | 100% | –
– | Fc1cc(F)c(-c2c(Cl)nc3ncnn3c2N2CCCCN2)c(F)c1 [drawing 77] | 100% | –
– | Fc1cc(F)c(-c2c(Cl)nc3ncnn3c2N2OC3CCC2C3)c(C(F)(F)F)c1 (stereo not drawn) [drawing 78] | 100% | –
– | CC1C=CCN(c2c(-c3c(F)cc(F)cc3F)c(Cl)nc3ncnn23)O1 (stereo not drawn) [drawing 80] | 93% | –
– | Fc1cc(F)c(-c2c(Cl)nc3ncnn3c2N2OC3CCC2C3)c(F)c1 (stereo not drawn) [drawing 81] | 98% | –
– | CC1CCCON1c1c(-c2c(F)cc(F)cc2F)c(Cl)nc2ncnn12 (stereo not drawn) [drawing 82] | 100% | –
– | CC1CCON1c1c(-c2c(F)cc(F)cc2F)c(Cl)nc2ncnn12 (stereo not drawn) [drawing 83] | 100% | –
– | Clc1ccccc1-c1c(Cl)nc2ncnn2c1N1OC2CCC1C2 (stereo not drawn) [drawing 84] | 93% | –
– | Fc1cccc(F)c1-c1c(Cl)nc2ncnn2c1N1CCCCO1 [drawing 85] | 100% | –
– | Fc1cccc(Cl)c1-c1c(Cl)nc2ncnn2c1N1OC2CCC1C2 (stereo not drawn) [drawing 86] | 100% | –
– | CC1CCON1c1c(-c2c(F)cccc2Cl)c(Cl)nc2ncnn12 (stereo not drawn) [drawing 87] | 100% | –
– | Fc1ccc(-c2c(Cl)nc3ncnn3c2N2OC3CCC2C3)c(F)c1 (stereo not drawn) [drawing 88] | 99% | –
– | CC1CCCON1c1c(-c2ccccc2Cl)c(Cl)nc2ncnn12 (stereo not drawn) [drawing 89] | 99% | –
– | Fc1ccc(-c2c(Cl)nc3ncnn3c2N2OC3CCC2C3)c(Cl)c1 (stereo not drawn) [drawing 90] | 100% | –
– | Fc1cc(F)c(-c2c(Cl)nc3ncnn3c2N2CCC=N2)c(F)c1 [drawing 91] | 100% | –
– | Clc1cccc(Cl)c1-c1c(Cl)nc2ncnn2c1N1CCCCN1 [drawing 92] | 99% | –
– | Fc1cc(F)c(-c2c(Cl)nc3ncnn3c2N2NC3CCC2C3)c(F)c1 (stereo not drawn) [drawing 93] | 96% | –
– | Fc1cccc(Cl)c1-c1c(Cl)nc2ncnn2c1N1NC2CCC1C2 (stereo not drawn) [drawing 94] | 100% | –
– | Fc1cccc(F)c1-c1c(Cl)nc2ncnn2c1N1CCCCN1 [drawing 95] | 95% | –
– | Fc1cc(F)c(-c2c(Cl)nc3ncnn3c2N2CCCCN2)c(C(F)(F)F)c1 [drawing 96] | 100% | –
– | Clc1ccc(-c2c(Cl)nc3ncnn3c2N2CCCCN2)c(Cl)c1 [drawing 97] | 95% | –
– | Fc1cc(C(F)(F)F)cc(F)c1-c1c(Cl)nc2ncnn2c1N1CCCCN1 [drawing 98] | 95% | –
– | Fc1cc(F)c(-c2c(Br)nc3ncnn3c2N2CCCCN2)c(F)c1 [drawing 99] | 100% | –

Structure (SMILES) | chromatographic logP (physchem) | pest or weed control at 500 g/ha (Botrytis cinerea) | also measured
Fc1ccc(-c2c(Cl)nc3ncnn3c2N2CCCCO2)c(Cl)c1 [Example 8] | 3.11 | – | –
Fc1ccc(-c2c(Cl)nc3ncnn3c2N2CCCCO2)c(F)c1 [Example 9] | 2.84 | – | –
Fc1cccc(Cl)c1-c1c(Cl)nc2ncnn2c1N1CCCCN1 [Example 12] | 2.67 | – | –
